target: T1, Nav 1.7 (Homo sapiens, UniProt Q15858); test: Whole-cell voltage clamp electrophysiology, manual patch clamp (marker b in Table of Examples); format: cell-based; conditions: 10 μM; marker b: Manual patch clamp data
T1 construct: expressed in transfected cells
Excerpt: a.IonWork Quattro data, b=Manual patch clamp data, c=Automated patch clamp data M=Method
Whole-Cell Voltage Clamp Electrophysiology Assay
Patch-clamp electrophysiology is considered the gold standard technique for investigation of ion channel function and pharmacology. Using this method, sodium channel currents can be measured in cells, which stably (or transiently) express the sodium channel subtype of interest. Application of compounds during such experiments provides a functional measure of the activity and potency of compounds affecting the ion channel of interest.
Electrophysiological studies can also be performed using the whole cell configuration of the standard manual patch clamp technique as described in the literature (e.g. Pflugers Arch., 1981, 391(2), 85-100). In this assay, cells that express the voltage-gated sodium channel protein of interest are exposed to the drugs by conventional microperfusion systems, or by a home-built perfusion system. A suitable voltage stimulus protocol is used to activate the voltage-gated sodium channels.
A suitable voltage stimulus protocol is used to activate voltage-gated sodium channel proteins of interest. A typical stimulus protocol may consist of sweeps of sequential voltage pulses starting from a holding potential (i.e. −65 mV), to a more positive and depolarising test pulse potential (i.e. −10 mV) and finally to a more negative and hyperpolarising potential (i.e. −100 mV). According to the biophysics of the voltage-gated ion channel of interest and interest in channel configuration the voltages and durations of the pulses as well as the overall frequency of sweeps applied might vary. Accordingly, a stimulus protocol was designed to assess compounds due to their potential to block NaV1.7 channels primarily in inactivated state. Selectivity over other voltage-gated sodium channel members was assessed by protocols that reflect the native function of the channels (i.e. heart rate or firing of neurons).
Electrophysiological studies can also be performed using the whole cell configuration of the standard manual patch clamp technique as described in the literature (e.g. Pflugers Arch., 1981, 391(2), 85-100). In this assay, cells that express the human voltage-gated sodium channel protein of interest are exposed to the drugs by conventional microperfusion systems, or by a home-built perfusion system. A suitable voltage stimulus protocol is used to activate the voltage-gated sodium channels. A suitable voltage stimulus protocol may consist of sequential voltage pulses from a holding potential, each first hyperpolarizing the cell, then depolarizing the channels for a brief period. A particularly suitable holding potential may be a voltage allowing a fraction of channels to remain in an inactivated state, like −60 mV. A suitable hyperpolarizing voltage and duration may be −120 mV for 100 ms, and depolarization voltage and duration may be −20 mV for 25 ms, and a suitable frequency of pulses may be 0.1 Hz, but may also have other parameters. Accordingly, a stimulus protocol was designed to assess compounds due to their potential to block NaV1.7 channels primarily in inactivated state. Selectivity over other voltage-gated sodium channel members was assessed by protocols that reflect the native function of the channels (i.e. heart rate or firing of neurons).

T1 sequence (Q15858 whole entry): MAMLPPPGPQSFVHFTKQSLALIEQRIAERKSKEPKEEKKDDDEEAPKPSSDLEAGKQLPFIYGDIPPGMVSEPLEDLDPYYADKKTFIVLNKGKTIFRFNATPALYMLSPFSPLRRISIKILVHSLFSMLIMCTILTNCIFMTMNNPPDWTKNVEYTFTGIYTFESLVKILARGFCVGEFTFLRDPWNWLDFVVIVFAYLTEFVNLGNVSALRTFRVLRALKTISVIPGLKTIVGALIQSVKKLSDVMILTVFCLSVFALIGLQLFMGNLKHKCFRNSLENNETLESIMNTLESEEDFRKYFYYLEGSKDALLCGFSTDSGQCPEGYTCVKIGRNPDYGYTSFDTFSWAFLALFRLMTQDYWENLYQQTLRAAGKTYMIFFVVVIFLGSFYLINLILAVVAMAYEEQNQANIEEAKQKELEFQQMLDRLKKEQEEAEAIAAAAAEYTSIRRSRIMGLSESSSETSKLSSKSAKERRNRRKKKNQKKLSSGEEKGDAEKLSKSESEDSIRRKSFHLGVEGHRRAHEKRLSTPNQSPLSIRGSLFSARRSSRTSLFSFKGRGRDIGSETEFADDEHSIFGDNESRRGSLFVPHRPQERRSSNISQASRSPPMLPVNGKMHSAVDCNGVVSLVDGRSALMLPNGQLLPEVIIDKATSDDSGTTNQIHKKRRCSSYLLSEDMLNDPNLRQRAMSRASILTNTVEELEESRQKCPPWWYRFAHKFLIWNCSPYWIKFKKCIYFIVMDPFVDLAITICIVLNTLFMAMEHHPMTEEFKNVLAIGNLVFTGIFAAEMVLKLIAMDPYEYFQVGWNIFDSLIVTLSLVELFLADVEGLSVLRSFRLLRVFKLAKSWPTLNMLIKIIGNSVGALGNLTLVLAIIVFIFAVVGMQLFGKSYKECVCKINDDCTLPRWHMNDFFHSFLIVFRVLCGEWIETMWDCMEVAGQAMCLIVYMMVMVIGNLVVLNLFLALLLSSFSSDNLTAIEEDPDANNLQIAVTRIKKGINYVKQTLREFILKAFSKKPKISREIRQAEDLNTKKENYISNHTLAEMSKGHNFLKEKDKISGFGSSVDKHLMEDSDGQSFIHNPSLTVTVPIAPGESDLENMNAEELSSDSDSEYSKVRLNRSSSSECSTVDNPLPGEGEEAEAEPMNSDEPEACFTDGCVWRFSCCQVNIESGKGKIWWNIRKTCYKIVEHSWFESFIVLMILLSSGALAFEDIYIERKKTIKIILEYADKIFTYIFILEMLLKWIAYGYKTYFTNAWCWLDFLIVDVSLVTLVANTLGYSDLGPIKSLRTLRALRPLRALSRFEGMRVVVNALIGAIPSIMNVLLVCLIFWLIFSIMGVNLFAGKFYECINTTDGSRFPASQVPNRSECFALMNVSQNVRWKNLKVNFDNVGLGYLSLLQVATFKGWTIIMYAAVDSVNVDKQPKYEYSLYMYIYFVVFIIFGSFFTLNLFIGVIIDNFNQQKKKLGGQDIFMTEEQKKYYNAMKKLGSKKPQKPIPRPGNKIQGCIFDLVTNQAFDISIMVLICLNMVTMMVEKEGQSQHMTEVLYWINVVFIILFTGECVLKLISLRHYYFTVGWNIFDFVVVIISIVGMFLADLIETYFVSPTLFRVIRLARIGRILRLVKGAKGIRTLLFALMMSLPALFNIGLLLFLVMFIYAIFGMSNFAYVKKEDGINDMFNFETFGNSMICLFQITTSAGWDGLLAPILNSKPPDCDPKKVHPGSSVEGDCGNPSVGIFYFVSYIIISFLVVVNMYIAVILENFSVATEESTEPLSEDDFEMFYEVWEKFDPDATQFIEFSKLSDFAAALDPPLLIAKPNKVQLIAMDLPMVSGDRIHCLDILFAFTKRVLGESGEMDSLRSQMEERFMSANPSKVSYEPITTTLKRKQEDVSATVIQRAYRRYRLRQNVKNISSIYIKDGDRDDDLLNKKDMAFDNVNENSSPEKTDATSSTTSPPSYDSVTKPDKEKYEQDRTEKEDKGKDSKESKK

| Nav 1.7 activity, % at 10 μM | SMILES |
| --- | --- |
| 44% (10 μM)^b | CN(c1ccccc1)c1nc(N)nc(-c2noc(-c3cccc(Cl)c3)n2)n1 [Example 35, 6-[5-(3-Chloro-phenyl)-[1,2,4]oxadiazol-3-yl]-N-methyl-N-phenyl-[1,3,5]triazine-2,4-diamine] |
| 50% (10 μM)^b | CN(c1ccccc1)c1nc(N)nc(-c2noc(-c3ccoc3)n2)n1 [Example 37, 6-(5-Furan-3-yl-[1,2,4]oxadiazol-3-yl)-N-methyl-N-phenyl-[1,3,5]triazine-2,4-diamine] |

same assay, conditions: marker b: Manual patch clamp data; read-out: Nav 1.7 activity

| IC50 [nM] | SMILES |
| --- | --- |
| 91 | Nc1nc(Nc2ccccc2)nc(-c2noc(-c3ccco3)n2)n1 [Example 2, 6-(5-Furan-2-yl-[1,2,4]oxadiazol-3-yl)-N-phenyl-[1,3,5]triazine-2,4-diamine] |
| 272 | Cc1cccc(N(C)c2nc(N)nc(-c3noc(-c4ccco4)n3)n2)c1 [Example 3, 6-(5-Furan-2-yl-[1,2,4]oxadiazol-3-yl)-N-methyl-N-(3-methylphenyl)-[1,3,5]triazine-2,4-diamine] |
| 661 | Cc1ccc(N(C)c2nc(N)nc(-c3noc(-c4ccco4)n3)n2)cc1 [Example 4, 6-(5-Furan-2-yl-[1,2,4]oxadiazol-3-yl)-N-methyl-N-(4-methylphenyl)-[1,3,5]triazine-2,4-diamine] |
| 791 | COc1cccc(N(C)c2nc(N)nc(-c3noc(-c4ccco4)n3)n2)c1 [Example 5, 6-(5-Furan-2-yl-[1,2,4]oxadiazol-3-yl)-N-methyl-N-(3-methoxyphenyl)-[1,3,5]triazine-2,4-diamine] |
| 1940 | COc1ccc(N(C)c2nc(N)nc(-c3noc(-c4ccco4)n3)n2)cc1 [Example 6, 6-(5-Furan-2-yl-[1,2,4]oxadiazol-3-yl)-N-methyl-N-(4-methoxyphenyl)-[1,3,5]triazine-2,4-diamine] |
| 339 | CN(c1ccc(Cl)cc1)c1nc(N)nc(-c2noc(-c3ccco3)n2)n1 [Example 8, 6-(5-Furan-2-yl-[1,2,4]oxadiazol-3-yl)-N-methyl-N-(4-chlorophenyl)-[1,3,5]triazine-2,4-diamine] |
| 769 | CN(c1ccccc1)c1nc(N)nc(-c2noc(-c3ccccn3)n2)n1 [Example 9, N-Methyl-N-phenyl-6-(5-pyridin-2-yl-[1,2,4]oxadiazol-3-yl)-[1,3,5]triazine-2,4-diamine] |
| 348 | CN(c1ccccc1)c1nc(N)nc(-c2noc(-c3ccccc3)n2)n1 [Example 10, N-Methyl-N-phenyl-6-(5-phenyl-[1,2,4]oxadiazol-3-yl)-[1,3,5]triazine-2,4-diamine] |
| 216 | CN(c1ccccc1)c1nc(N)nc(-c2noc(-c3cccs3)n2)n1 [Example 11, N-Methyl-N-phenyl-6-(5-thiophen-2-yl-[1,2,4]oxadiazol-3-yl)-[1,3,5]triazine-2,4-diamine] |
| 2320 | CN(c1ccccc1)c1nc(N)nc(-c2noc(-c3ccc(Cl)s3)n2)n1 [Example 12, N-Methyl-6-[5-(5-chloro-thiophen-2-yl)-[1,2,4]oxadiazol-3-yl]-N-phenyl-[1,3,5]triazine-2,4-diamine] |
| 198 | CN(c1nc(N)nc(-c2noc(-c3ccco3)n2)n1)c1ccccc1F [Example 14, N-(2-Fluoro-phenyl)-6-(5-furan-2-yl-[1,2,4]oxadiazol-3-yl)-N-methyl-[1,3,5]triazine-2,4-diamine] |
| 152 | CN(c1cccc(F)c1)c1nc(N)nc(-c2noc(-c3ccco3)n2)n1 [Example 15, N-(3-Fluoro-phenyl)-6-(5-furan-2-yl-[1,2,4]oxadiazol-3-yl)-N-methyl-[1,3,5]triazine-2,4-diamine] |
| 106 | CN(c1ccccc1)c1nc(N)nc(-c2noc(-c3ccccc3Cl)n2)n1 [Example 23, 6-[5-(2-Chloro-phenyl)-[1,2,4]oxadiazol-3-yl]-N-methyl-N-phenyl-[1,3,5]triazine-2,4-diamine] |
| 47 | COc1ccccc1-c1nc(-c2nc(N)nc(N(C)c3ccccc3)n2)no1 [Example 25, 6-[5-(2-Methoxy-phenyl)-[1,2,4]oxadiazol-3-yl]-N-methyl-N-phenyl-[1,3,5]triazine-2,4-diamine] |
| 148 | COc1ccc(-c2nc(-c3nc(N)nc(N(C)c4ccccc4)n3)no2)cc1 [Example 26, 6-[5-(4-Methoxy-phenyl)-[1,2,4]oxadiazol-3-yl]-N-methyl-N-phenyl-[1,3,5]triazine-2,4-diamine] |
| 165 | CN(c1ccccc1)c1nc(N)nc(-c2noc(-c3ccc(Cl)cc3)n2)n1 [Example 36, 6-[5-(4-Chloro-phenyl)-[1,2,4]oxadiazol-3-yl]-N-methyl-N-phenyl-[1,3,5]triazine-2,4-diamine] |
| 1120 | CCN(c1ccccc1)c1nc(N)nc(-c2noc(-c3nccs3)n2)n1 [Example 38, N-Ethyl-N-phenyl-6-(5-thiazol-2-yl-[1,2,4]oxadiazol-3-yl)-[1,3,5]triazine-2,4-diamine] |
| 511 | CN(c1ccccc1)c1nc(N)nc(-c2noc(N3CCCCC3)n2)n1 [Example 46, N-Methyl-N-phenyl-6-(5-piperidin-1-yl-[1,2,4]oxadiazol-3-yl)-[1,3,5]triazine-2,4-diamine] |
| 4630 | CN(c1ccccc1)c1nc(N)nc(-c2noc(C3CCOC3)n2)n1 (stereo not drawn) [Example 48] |
| 909 | CN(c1ccccc1)c1nc(N)nc(-c2noc(-c3cncs3)n2)n1 [Example 52, N-Methyl-N-phenyl-6-(5-thiazol-5-yl-[1,2,4]oxadiazol-3-yl)-[1,3,5]triazine-2,4-diamine] |
| 2220 | CN(c1ccccc1)c1nc(N)nc(-c2noc(-c3cncc(N)c3)n2)n1 [Example 54, 6-[5-(5-Amino-pyridin-3-yl)-[1,2,4]oxadiazol-3-yl]-N-methyl-N-phenyl-[1,3,5]triazine-2,4-diamine] |
| 561 | CN(c1ccccc1)c1nc(N)nc(-c2noc(-c3ccn[nH]3)n2)n1 [Example 61, N-Methyl-N-phenyl-6-[5-(2H-pyrazol-3-yl)-[1,2,4]oxadiazol-3-yl]-[1,3,5]triazine-2,4-diamine] |
| 21 | COc1cccc(F)c1-c1nc(-c2nc(N)nc(N(C)c3ccccc3)n2)no1 [Example 81, 6-[5-(2-Fluoro-6-methoxy-phenyl)-[1,2,4]oxadiazol-3-yl]-N-methyl-N-phenyl-[1,3,5]triazine-2,4-diamine] |
| 195 | COC(=O)c1ccc(-c2nc(-c3nc(N)nc(N(C)c4ccccc4)n3)no2)s1 [Example 82, 5-{3-[4-amino-6-(methyl-phenyl-amino)-[1,3,5]triazin-2-yl]-[1,2,4]oxadiazol-5-yl}-thiophene-2-carboxylic acid methyl ester] |
| 93 | CN(c1nc(N)nc(-c2noc(-c3ccco3)n2)n1)c1cc(F)ccc1F [Example 104, N-(2,5-Difluoro-phenyl)-6-(5-furan-2-yl-[1,2,4]oxadiazol-3-yl)-N-methyl-[1,3,5]triazine-2,4-diamine] |
| 59 | Cc1ccc(F)c(N(C)c2nc(N)nc(-c3noc(-c4ccco4)n3)n2)c1 [Example 105, N-(2-Fluoro-5-methyl-phenyl)-6-(5-furan-2-yl-[1,2,4]oxadiazol-3-yl)-N-methyl-[1,3,5]triazine-2,4-diamine] |
| 82 | CN(c1nc(N)nc(-c2noc(-c3ccco3)n2)n1)c1cccc(Cl)c1F [Example 106, N-(3-Chloro-2-fluoro-phenyl)-6-(5-furan-2-yl-[1,2,4]oxadiazol-3-yl)-N-methyl-[1,3,5]triazine-2,4-diamine] |
| 235 | Nc1nc(Nc2cc(Cl)ccc2F)nc(-c2noc(-c3ccco3)n2)n1 [Example 108, N-(5-Chloro-2-fluoro-phenyl)-6-(5-furan-2-yl-[1,2,4]oxadiazol-3-yl)-[1,3,5]triazine-2,4-diamine] |
| 54 | Nc1nc(Nc2cccc(Cl)c2F)nc(-c2noc(-c3ccco3)n2)n1 [Example 111, N-(3-Chloro-2-fluoro-phenyl)-6-(5-furan-2-yl-[1,2,4]oxadiazol-3-yl)-[1,3,5]triazine-2,4-diamine] |
| 87 | Cc1cccc(Nc2nc(N)nc(-c3noc(-c4ccco4)n3)n2)c1F [Example 112, N-(2-Fluoro-3-methyl-phenyl)-6-(5-furan-2-yl-[1,2,4]oxadiazol-3-yl)-[1,3,5]triazine-2,4-diamine] |

| SMILES | IC50 [nM] |
| --- | --- |
| CN(c1ccccc1)c1nc(N)nc(-c2noc(-c3ccc(OC4CCCC4)nc3)n2)n1 [Example 13, 6-[5-(6-Cyclopentoxy-pyridin-3-yl)-[1,2,4]oxadiazol-3-yl]-N-methyl-N-phenyl-[1,3,5]triazine-2,4-diamine] | 4 |
